We go through 25 compounds from ChEMBL document CHEMBL3632580, “Structure-activity relationship of indoloquinoline analogs anti-MRSA” (2015).

What all share (assay type): functional
The subject of assay [1] is Staphylococcus aureus. Kind of assay: Antibacterial activity against methicillin-resistant Staphylococcus aureus OM481.
Assay [2] deals with Staphylococcus aureus. Description: Antibacterial activity against methicillin-resistant Staphylococcus aureus OM584.
The next assay deals with P388. Kind of assay: Antitumor activity against mouse P388 cells implanted in CD2F1 mouse assessed as tumor growth inhibition at 6.25 mg/kg, ip relative to control.

Values after ≈ are worked out from the molar mass of the structure shown.

For the compound `COc1cc(O)ccc1Nc1c2ccccc2nc2c1[nH]c1ccccc12`, the MIC in the assay with Staphylococcus aureus [1] was determined as 8 µg/mL (≈ 22.5 µM); in the assay on Staphylococcus aureus [2] it was 16 µg/mL (≈ 45 µM).
The corresponding values for `c1ccc(Nc2c3ccccc3nc3c2[nH]c2ccccc23)cc1` are 8 µg/mL (≈ 25.9 µM) and 4 µg/mL (≈ 12.9 µM).
On the same counts, the results for `Cl.Oc1ccccc1Nc1c2ccccc2nc2c1[nH]c1ccccc12` are 16 µg/mL and 16 µg/mL.
The corresponding values for `Oc1cccc(Nc2c3ccccc3nc3c2[nH]c2ccccc23)c1` are 16 µg/mL (≈ 49.2 µM) and 8 µg/mL (≈ 24.6 µM).
For `Oc1ccc(Nc2c3ccccc3nc3c2[nH]c2ccccc23)cc1`, the MIC was found to be 4 µg/mL (≈ 12.3 µM) against Staphylococcus aureus [1] and 2 µg/mL (≈ 6.15 µM) against Staphylococcus aureus [2].
Consider `COc1ccccc1Nc1c2ccccc2nc2c1[nH]c1ccccc12`, for which the MIC in the assay with Staphylococcus aureus [1] and with Staphylococcus aureus [2] was above 250 µg/mL in each case.
Take `COc1cccc(Nc2c3ccccc3nc3c2[nH]c2ccccc23)c1`: the MIC against Staphylococcus aureus [1] and against Staphylococcus aureus [2] was above 250 µg/mL in each case.
Consider `COc1ccc(Nc2c3ccccc3nc3c2[nH]c2ccccc23)cc1`, for which the minimum inhibitory concentration (MIC) with Staphylococcus aureus [1] turned out to be 16 µg/mL (≈ 47.1 µM); in the assay with Staphylococcus aureus [2] it was 8 µg/mL (≈ 23.6 µM).
The corresponding values for `Clc1ccccc1Nc1c2ccccc2nc2c1[nH]c1ccccc12` are 8 µg/mL (≈ 23.3 µM) and 4 µg/mL (≈ 11.6 µM).
On the same counts, the results for `Clc1cccc(Nc2c3ccccc3nc3c2[nH]c2ccccc23)c1` are 125 µg/mL (≈ 364 µM) and 125 µg/mL (≈ 364 µM).
On the same counts, the results for `Clc1ccc(Nc2c3ccccc3nc3c2[nH]c2ccccc23)cc1` are 8 µg/mL (≈ 23.3 µM) and 4 µg/mL (≈ 11.6 µM).
As to `Fc1ccc(Nc2c3ccccc3nc3c2[nH]c2ccccc23)cc1`, the MIC against Staphylococcus aureus [1] and in the assay with Staphylococcus aureus [2] was 8 µg/mL (≈ 24.4 µM) each time.
Consider `Cc1ccc(Nc2c3ccccc3nc3c2[nH]c2ccccc23)cc1`, for which the MIC with Staphylococcus aureus [1] and in the assay with Staphylococcus aureus [2] was 62.5 µg/mL (≈ 193 µM) each time.
As to `O=[N+]([O-])c1ccc(Nc2c3ccccc3nc3c2[nH]c2ccccc23)cc1`, the MIC with Staphylococcus aureus [1] and against Staphylococcus aureus [2] was above 250 µg/mL throughout.
As for `CN(c1ccc(O)cc1)c1c2ccccc2nc2c1[nH]c1ccccc12`, the MIC with Staphylococcus aureus [1] and in the assay with Staphylococcus aureus [2] was above 250 µg/mL throughout.
For the compound `Oc1ccc(Nc2c3ccccc3nc3c2[nH]c2ccc(Cl)cc23)cc1`, the MIC was determined as 8 µg/mL (≈ 22.2 µM) in the assay with Staphylococcus aureus [1] and 4 µg/mL (≈ 11.1 µM) with Staphylococcus aureus [2].
The corresponding values for `COc1ccc2[nH]c3c(Nc4ccc(O)cc4)c4ccccc4nc3c2c1` are 2 µg/mL (≈ 5.63 µM) and 2 µg/mL (≈ 5.63 µM).
On the same counts, the results for `Cc1ccc2[nH]c3c(Nc4ccc(O)cc4)c4ccccc4nc3c2c1` are 4 µg/mL (≈ 11.8 µM) and 2 µg/mL (≈ 5.89 µM).
The corresponding values for `Cn1c2ccccc2c2nc3ccccc3c(Nc3ccc(O)cc3)c21` are 250 µg/mL (≈ 737 µM) and 8 µg/mL (≈ 23.6 µM).
With `CC(=O)Oc1ccc(Nc2c3ccccc3nc3c2[nH]c2ccccc23)cc1.Cl`, the figures for the MIC against Staphylococcus aureus [1] and against Staphylococcus aureus [2] were 16 µg/mL and 8 µg/mL, respectively.
On the same counts, the results for `Oc1ccc(Nc2c3ccccc3nc3c2oc2ccccc23)cc1` are 2 µg/mL (≈ 6.13 µM) and 2 µg/mL (≈ 6.13 µM).
The corresponding values for `Oc1ccc(Nc2c3c(nc4ccccc24)-c2ccccc2C3)cc1` are 250 µg/mL (≈ 771 µM) and above 250 µg/mL.
On the same counts, the results for `CC1c2ccccc2-c2nc3ccccc3c(Nc3ccc(O)cc3)c21` (stereo unspecified) are 16 µg/mL (≈ 47.3 µM) and 4 µg/mL (≈ 11.8 µM).
In the case of `Cl.Oc1ccc(Nc2c3ccccc3nc3ccccc23)cc1`, the MIC with Staphylococcus aureus [1] was 250 µg/mL; against Staphylococcus aureus [2] it was above 250 µg/mL.
On to `COc1cc(NS(C)(=O)=O)ccc1Nc1c2ccccc2nc2c1[nH]c1ccccc12`, for which the values for the MIC in the assay on Staphylococcus aureus [1] and with Staphylococcus aureus [2] were 8 µg/mL (≈ 18.5 µM) and 16 µg/mL (≈ 37 µM), respectively. The T/C with P388 is reported as 300%.
